From US8114880B2, “Piperidine or piperazine substituted tetrahydro-naphthalene-1-carboxylic acid MTP inhibiting compounds” (Janssen Pharmaceutica N.V., priority 2006, dated 2012)

Key:
MTP = MTP (Homo sapiens, UniProt P55157); assay: MTP assay (triglyceride transfer from donor to acceptor vesicles); format: biochemical; conditions: MTP activity, percent triglyceride transfer from donor to acceptor vesicles, 37° C.
How it was run: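 Radiolabelled triglyceride transfer from donor vesicles (phosphatidylcholine, 7.5 mol % cardiolipin, 0.25 mol % glycerol tri[1-^14C]-oleate) to phosphatidylcholine acceptor vesicles with BSA, pH 7.5 Tris buffer; compounds in DMSO (0.13% final), 5 min preincubation at 37° C before MTP addition. Donor vesicles removed on DEAE-52; acceptor-supernatant ^14C counts give percent transfer.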

HepG2 cells = assay: Quantification of the secretion of ApoB; format: cell-based; conditions: Homo sapiens, HepG2, 24 h, 24 hours of incubation, pIC50 = -log IC50
Protocol: HepG2 cells were cultured in 24-well plates in MEM Rega 3 containing 10% fetal calf serum. At 70% confluency, the medium was changed and the test compound or carrier (DMSO, 0.4% final concentration) was added. After 24 hours of incubation, the medium was transferred to Eppendorf tubes and cleared by centrifugation. A sheep antibody directed against either apoB was added to the supernatant and the mixture was kept at 8° C. for 24 hours. Then, rabbit anti-sheep antibody was added and the immune complex was allowed to precipitate for 24 hours at 8° C. The immunoprecipitate was pelleted by centrifugation for 25 minutes at 1320 g and washed twice with a buffer containing 40 mM Mops, 40 mM NaH2PO4, 100 mM NaF, 0.2 mM DTT, 5 mM EDTA, 5 mM EGTA, 1% Triton-X-100, 0.5% sodium deoxycholate (DOC), 0.1% SDS, 0.2 μM leupeptin and 0.2 μM PMSF. Radioactivity in the pellet was quantified by liquid scintillation counting. The IC50 values are usually converted to pIC50 values (=−log IC50 value) for ease of use.

Chain of MTP (P55157 19-894, species assumed): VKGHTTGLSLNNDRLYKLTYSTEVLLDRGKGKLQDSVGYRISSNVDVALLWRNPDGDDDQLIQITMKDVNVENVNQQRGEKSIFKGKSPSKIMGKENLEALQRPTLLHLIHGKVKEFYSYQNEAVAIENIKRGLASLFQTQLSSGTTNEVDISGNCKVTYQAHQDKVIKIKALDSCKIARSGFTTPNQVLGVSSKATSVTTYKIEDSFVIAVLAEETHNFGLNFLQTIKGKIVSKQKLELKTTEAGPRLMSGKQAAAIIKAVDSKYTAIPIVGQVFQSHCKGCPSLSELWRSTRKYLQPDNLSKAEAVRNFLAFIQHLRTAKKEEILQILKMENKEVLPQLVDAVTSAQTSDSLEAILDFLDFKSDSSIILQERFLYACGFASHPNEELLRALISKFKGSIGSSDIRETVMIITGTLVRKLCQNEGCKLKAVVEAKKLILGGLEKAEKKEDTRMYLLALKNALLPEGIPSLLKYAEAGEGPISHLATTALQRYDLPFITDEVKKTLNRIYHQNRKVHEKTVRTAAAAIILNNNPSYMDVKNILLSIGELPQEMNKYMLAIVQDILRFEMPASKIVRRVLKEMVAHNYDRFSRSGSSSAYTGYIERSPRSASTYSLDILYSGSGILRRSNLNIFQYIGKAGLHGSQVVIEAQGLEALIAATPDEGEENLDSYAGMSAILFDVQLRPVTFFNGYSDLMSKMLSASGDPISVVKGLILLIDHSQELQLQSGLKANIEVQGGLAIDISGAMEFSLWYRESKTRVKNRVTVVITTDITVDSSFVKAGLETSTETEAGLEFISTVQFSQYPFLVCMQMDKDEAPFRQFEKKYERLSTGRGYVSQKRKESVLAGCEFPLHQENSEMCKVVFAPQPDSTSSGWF
Chain of MTP (P07237 18-508 partner, species assumed): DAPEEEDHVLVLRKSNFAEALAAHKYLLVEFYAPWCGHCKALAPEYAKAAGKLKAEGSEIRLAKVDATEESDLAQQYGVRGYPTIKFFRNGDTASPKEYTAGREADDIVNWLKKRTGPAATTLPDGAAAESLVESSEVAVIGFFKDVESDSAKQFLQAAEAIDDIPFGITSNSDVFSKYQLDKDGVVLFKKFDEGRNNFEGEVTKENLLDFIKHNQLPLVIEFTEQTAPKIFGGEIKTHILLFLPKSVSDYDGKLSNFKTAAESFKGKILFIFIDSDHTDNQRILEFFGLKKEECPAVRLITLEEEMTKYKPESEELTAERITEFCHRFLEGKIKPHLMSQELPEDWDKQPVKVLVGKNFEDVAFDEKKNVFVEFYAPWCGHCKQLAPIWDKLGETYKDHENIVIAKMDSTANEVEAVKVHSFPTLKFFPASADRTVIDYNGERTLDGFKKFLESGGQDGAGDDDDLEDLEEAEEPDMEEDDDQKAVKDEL

| SMILES | IC50 (MTP) | IC50 (HepG2 cells) |
| --- | --- | --- |
| CCNC(=O)[C@]1(c2ccccc2)CC[C@@H](CN2CCC(NC(=O)c3ccccc3OC)CC2)c2ccccc21 [Co. No. 15] | 0.0502 µM | 0.186 µM |
| CCNC(=O)[C@]1(c2ccccc2)CC[C@@H](CN2CCC(NC(=O)c3ccccc3-c3ccc(C(F)(F)F)cc3)CC2)c2ccccc21 [Co. No. 16] | 0.0032 µM | 0.015 µM |
| C=CCOC(=O)[C@]1(c2ccccc2)CC[C@@H](C(=O)N2CCC(NC(=O)c3ccccc3-c3ccc(C(F)(F)F)cc3)CC2)c2ccccc21 [Co. No. 19] | 0.00463 µM | 0.00757 µM |
| CCNC(=O)[C@]1(c2ccccc2)CC[C@@H](C(=O)N2CC[C@@H](NC(=O)c3ccccc3OC)[C@@H](OC)C2)c2ccccc21 [Co. No. 20] | 0.0126 µM | 0.0229 µM |
| CCNC(=O)[C@]1(c2ccccc2)CC[C@@H](C(=O)N2CCC(NC(=O)c3ccc(Cl)cc3OC)CC2)c2ccccc21 [Co. No. 21] | 0.00984 µM | 0.0276 µM |
| CCNC(=O)[C@]1(c2ccccc2)CC[C@@H](C(=O)N2CCC(NC(=O)c3ccccc3C)CC2)c2ccccc21 [Co. No. 22] | 0.0289 µM | 0.155 µM |
| CCNC(=O)[C@]1(c2ccccc2)CC[C@@H](C(=O)N2CC[C@@H](NC(=O)c3cc(Cl)c(N)cc3OC)[C@@H](OC)C2)c2ccccc21 [Co. No. 23] | 0.0603 µM | 0.232 µM |
| CCOC(=O)[C@]1(c2ccccc2)CC[C@@H](C(=O)N2CCC(NC(=O)c3cc(Cl)c(N)cc3OC)CC2)c2ccccc21 [Co. No. 24] | 0.0548 µM | 0.202 µM |
| CCOC(=O)[C@]1(c2ccccc2)CC[C@@H](C(=O)N2CCN(C(=O)c3ccccc3OC)CC2)c2ccccc21 [Co. No. 27] | 0.0652 µM | 0.778 µM |
| CCOC(=O)[C@]1(c2ccccc2)CC[C@@H](C(=O)N2CCN(C(=O)c3ccc(C)cc3-c3ccc(C(F)(F)F)cc3)CC2)c2ccccc21 [Co. No. 28] | > 0.1 µM | 0.329 µM |
| CCOC(=O)[C@]1(c2ccccc2)CC[C@@H](C(=O)N2CCC(NC(=O)c3ccccc3)CC2)c2ccccc21 [Co. No. 33] | > 1 µM | > 1 µM |
| CCOC(=O)[C@@]1(c2ccccc2)CC[C@H](C(=O)N2CCC(NC(=O)c3ccccc3OC)CC2)c2ccccc21 [Co. No. 34] | 0.00116 µM | 0.00379 µM |
| CCOC(=O)[C@]1(c2ccccc2)CC[C@@H](C(=O)N2CCC(NC(=O)c3ccccc3OC)CC2)c2ccccc21 [Co. No. 35] | 1.71 µM | 5.37 µM |
| CCOC(=O)[C@@]1(c2ccccc2)CC[C@H](C(=O)N2CCC(NC(=O)c3ccccc3O)CC2)c2ccccc21 [Co. No. 36] | 0.00347 µM | 0.0117 µM |
| COc1ccccc1C(=O)NC1CCN(C(=O)[C@H]2CC[C@](C(N)=O)(c3ccccc3)c3ccccc32)CC1 [Co. No. 40] | > 10 µM | 0.0706 µM |
| CCOC(=O)[C@]1(c2ccccc2)CC[C@@H](C(=O)N2CCC(NC(=O)c3ccccc3O)CC2)c2ccccc21 [Co. No. 42] | > 10 µM | 1 µM |
| CCOC(=O)CNC(=O)[C@@]1(c2ccccc2)CC[C@H](C(=O)N2CCC(NC(=O)c3ccccc3OC)CC2)c2ccccc21 [Co. No. 47] | 0.00237 µM | 0.0272 µM |
| CCOC(=O)CNC(=O)[C@]1(c2ccccc2)CC[C@@H](C(=O)N2CCC(NC(=O)c3ccccc3OC)CC2)c2ccccc21 [Co. No. 48] | 0.0133 µM | 9.77 µM |
| COC(=O)[C@]1(c2ccccc2)CC[C@@H](C(=O)N2CCC(NC(=O)c3cccc(OC)c3OC)CC2)c2ccccc21 [Co. No. 49] | 0.0181 µM | 0.638 µM |
| COC(=O)[C@]1(c2ccccc2)CC[C@@H](C(=O)N2CCC(NC(=O)c3cc(OC)ccc3OC)CC2)c2ccccc21 [Co. No. 50] | 0.0116 µM | 0.0161 µM |

| SMILES | IC50 (MTP) | IC50 (HepG2 cells) |
| --- | --- | --- |
| COC(=O)[C@]1(c2ccccc2)CC[C@@H](C(=O)N2CCC(NC(=O)c3cc(C)ccc3OC)CC2)c2ccccc21 [Co. No. 51] | 0.0128 µM | 0.00951 µM |
| COC(=O)[C@]1(c2ccccc2)CC[C@@H](C(=O)N2CCC(NC(=O)c3cc(OC)ccc3OCC(F)(F)F)CC2)c2ccccc21 [Co. No. 53] | 0.00964 µM | 0.0618 µM |
| COC(=O)[C@]1(c2ccccc2)CC[C@@H](C(=O)N2CCC(NC(=O)c3ccccc3OC(F)F)CC2)c2ccccc21 [Co. No. 54] | 0.0104 µM | 0.0658 µM |
| COC(=O)[C@]1(c2ccccc2)CC[C@@H](C(=O)N2CCC(NC(=O)c3c(O)cccc3OC)CC2)c2ccccc21 [Co. No. 55] | 0.0607 µM | > 1 µM |
| COC(=O)[C@]1(c2ccccc2)CC[C@@H](C(=O)N2CCC(NC(=O)c3cccnc3OC)CC2)c2ccccc21 [Co. No. 56] | 0.00169 µM | 0.00224 µM |
| CCOc1ncccc1C(=O)NC1CCN(C(=O)[C@@H]2CC[C@](C(=O)OC)(c3ccccc3)c3ccccc32)CC1 [Co. No. 57] | 0.00568 µM | 0.0697 µM |
| CCCOc1cccnc1C(=O)NC1CCN(C(=O)[C@@H]2CC[C@](C(=O)OC)(c3ccccc3)c3ccccc32)CC1 [Co. No. 58] | 0.149 µM | 0.00204 µM |
| COC(=O)[C@]1(c2ccccc2)CC[C@@H](C(=O)N2CCC(NC(=O)c3cc(OC)nnc3OC)CC2)c2ccccc21 [Co. No. 59] | > 0.1 µM | 0.225 µM |
| COC(=O)[C@]1(c2ccccc2)CC[C@@H](C(=O)N2CCC(NC(=O)c3cc(O)ccc3OC)CC2)c2ccccc21 [Co. No. 61] | > 10 µM | 0.286 µM |
| COc1ccccc1C(=O)NC1CCN(C(=O)[C@H]2CC[C@@](C(=O)NCC(=O)OC(C)(C)C)(c3ccccc3)c3ccccc32)CC1 [Co. No. 62] | 0.000713 µM | 0.0421 µM |
| COc1ccccc1C(=O)NC1CCN(C(=O)[C@H]2CC[C@@](C(=O)NCC(=O)O)(c3ccccc3)c3ccccc32)CC1 [Co. No. 63] | > 1 µM | > 10 µM |
| COC(=O)CNC(=O)[C@@]1(c2ccccc2)CC[C@H](C(=O)N2CCC(NC(=O)c3ccccc3OC)CC2)c2ccccc21 [Co. No. 64] | 0.00387 µM | 0.0178 µM |
| COC(=O)CCNC(=O)[C@@]1(c2ccccc2)CC[C@H](C(=O)N2CCC(NC(=O)c3ccccc3OC)CC2)c2ccccc21 [Co. No. 65] | 0.00286 µM | 0.00798 µM |
| CCOC(=O)[C@H](C)NC(=O)[C@@]1(c2ccccc2)CC[C@H](C(=O)N2CCC(NC(=O)c3ccccc3OC)CC2)c2ccccc21 [Co. No. 66] | 0.0202 µM | > 1 µM |
| CCOC(=O)[C@@H](C)NC(=O)[C@@]1(c2ccccc2)CC[C@H](C(=O)N2CCC(NC(=O)c3ccccc3OC)CC2)c2ccccc21 [Co. No. 67] | 0.0202 µM | 0.873 µM |
| CCOC(=O)[C@@H](NC(=O)[C@@]1(c2ccccc2)CC[C@H](C(=O)N2CCC(NC(=O)c3ccccc3OC)CC2)c2ccccc21)C(C)C [Co. No. 68] | 0.0179 µM | > 1 µM |
| CCOC(=O)[C@H](NC(=O)[C@@]1(c2ccccc2)CC[C@H](C(=O)N2CCC(NC(=O)c3ccccc3OC)CC2)c2ccccc21)C(C)C [Co. No. 69] | 0.0244 µM | 0.154 µM |
| CCOC(=O)[C@H](CC(C)C)NC(=O)[C@@]1(c2ccccc2)CC[C@H](C(=O)N2CCC(NC(=O)c3ccccc3OC)CC2)c2ccccc21 [Co. No. 70] | 0.0353 µM | > 1 µM |
| CCOC(=O)C[C@H](NC(=O)[C@@]1(c2ccccc2)CC[C@H](C(=O)N2CCC(NC(=O)c3ccccc3OC)CC2)c2ccccc21)C(=O)OCC [Co. No. 72] | 0.0107 µM | > 1 µM |
